Measurements published in US20200131142A1, “FARNESOID X RECEPTOR AGONISTS AND USES THEREOF” (Metacrine, Inc., priority 2017, published 2020).

Each compound was assayed against T1, hFXR (Homo sapiens, UniProt Q96RI1) (assay: In Vitro FXR Assay (TK): hFXR/hRXR TK-ECRE-luc reporter in transfected CV-1 cells). Details: 18 hrs incubation, luminescence, compounds with maximum efficacy <25% of the Fexarmine control classified as '+'.
T1 construct: expressed in transfected cells; host or cells: CV-1 cells
T1 sequence (Q96RI1 1-486): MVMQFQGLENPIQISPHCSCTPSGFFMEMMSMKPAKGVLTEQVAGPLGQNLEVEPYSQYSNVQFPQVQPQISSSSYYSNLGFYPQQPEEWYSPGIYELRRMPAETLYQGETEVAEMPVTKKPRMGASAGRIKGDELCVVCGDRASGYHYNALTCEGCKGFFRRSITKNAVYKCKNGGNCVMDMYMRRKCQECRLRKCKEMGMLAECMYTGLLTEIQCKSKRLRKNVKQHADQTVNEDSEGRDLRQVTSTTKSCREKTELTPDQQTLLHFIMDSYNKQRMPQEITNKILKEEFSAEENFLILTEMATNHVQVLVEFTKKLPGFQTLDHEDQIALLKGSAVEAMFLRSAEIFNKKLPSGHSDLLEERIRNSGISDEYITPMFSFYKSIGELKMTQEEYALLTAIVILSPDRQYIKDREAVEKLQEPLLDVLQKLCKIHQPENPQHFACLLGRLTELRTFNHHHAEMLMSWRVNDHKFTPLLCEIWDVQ
T1 sequence (P19793 1-462 partner): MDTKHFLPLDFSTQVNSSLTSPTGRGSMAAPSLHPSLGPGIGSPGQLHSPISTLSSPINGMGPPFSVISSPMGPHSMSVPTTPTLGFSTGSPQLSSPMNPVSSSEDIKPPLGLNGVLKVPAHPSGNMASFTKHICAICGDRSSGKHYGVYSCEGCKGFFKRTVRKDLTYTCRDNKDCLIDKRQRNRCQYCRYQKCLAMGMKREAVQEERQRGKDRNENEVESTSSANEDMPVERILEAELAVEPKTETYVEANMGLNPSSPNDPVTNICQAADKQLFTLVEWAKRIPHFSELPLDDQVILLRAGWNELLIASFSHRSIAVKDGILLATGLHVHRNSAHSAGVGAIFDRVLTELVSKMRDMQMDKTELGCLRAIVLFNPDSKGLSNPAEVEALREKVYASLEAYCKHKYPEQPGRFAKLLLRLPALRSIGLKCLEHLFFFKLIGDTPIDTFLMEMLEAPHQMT
Format: cell-based
Method: Example B-1: In Vitro FXR Assay (TK)
CV-1 cells were seeded at a density of 2,000,000 cells in a T175 flask with DMEM+10% charcoal double-stripped FBS and incubated at 37° C. in 5% CO2 for 18 h (O/N).
After 18 h of incubation, the medium in the T175 flask was changed with fresh DMEM+10% charcoal super-stripped serum. In a polypropylene tube, 2500 μL OptiMEM (Life Technologies, Cat #31985-062) was combined with expression plasmids for hFXR, hRXR, TK-ECRE-luc and pCMX-YFP. The tube was then briefly vortexed and incubated at room temperature for 5 minutes. Transfection reagent (X-tremeGENE HP from Roche, Cat #06 366 236 001) was added to the OptiMEM/plasmid mixture vortexed and incubated at room temperature for 20 minutes. Following incubation, the transfection reagent/DNA mixture complex was added to cells in the T175 flask and the cells were incubated at 37° C. in 5% CO2 for 18 h (O/N).
Compounds were serially diluted in DMSO and added to transfected CV-1 cells. The cells were then incubated for 18 hrs. The next day cells were lysed and examined for luminescence.

Structure (SMILES)	EC50 [µM]
COc1ccc([C@H]2CC[C@H](CN(c3cccc(-c4cnc(C5CCC5)s4)c3)C(=O)[C@H]3CC[C@H](O)CC3)CC2)cc1C [Compound 7.08, trans-N-(3-(2-Cyclobutylthiazol-5-yl)phenyl)-4-hydroxy-N-((trans-4-(4-methoxy-3-methylphenyl)cyclohexyl)methyl) cyclohexanecarboxamide]	≤ 0.25
COc1ccc([C@H]2CC[C@H](CN(c3cccc(-c4cnc(C5CCCCC5)s4)c3)C(=O)[C@H]3CC[C@H](O)CC3)CC2)cc1C [Compound 7.09, trans-N-(3-(2-Cyclohexylthiazol-5-yl)phenyl)-4-hydroxy-N-((trans-4-(4-methoxy-3-methylphenyl)cyclohexyl)methyl) cyclohexanecarboxamide]	0.25 to 1
COc1ccc([C@H]2CC[C@H](CN(c3cccc(-c4cnc(-c5ccccc5)s4)c3)C(=O)[C@H]3CC[C@H](O)CC3)CC2)cc1C [Compound 7.10, trans-4-Hydroxy-N-((trans-4-(4-methoxy-3-methylphenyl)cyclohexyl)methyl)-N-(3-(2-phenylthiazol-5-yl)phenyl)cyclohexanecarboxamide]	≤ 0.25
COc1ccc([C@H]2CC[C@H](CN(c3cccc(-c4cnc(S(C)(=O)=O)s4)c3)C(=O)[C@H]3CC[C@H](O)CC3)CC2)cc1C [Compound 7.12, trans-4-Hydroxy-N-((trans-4-(4-methoxy-3-methtylphenyl)cyclohexyl)methyl)-N-(3-(2-(methylsulfonyl)thiazol-5-yl)phenyl)cyclohexanecarboxamide]	0.25 to 1
COc1ccc([C@H]2CC[C@H](CN(c3cccc(-c4cnc(N5CCCCC5)s4)c3)C(=O)[C@H]3CC[C@H](O)CC3)CC2)cc1C [Compound 7.14, trans-4-Hydroxy-N-((trans-4-(4-methoxy-3-methylphenyl)cyclohexyl)methyl)-N-(3-(2-(piperidin-1-yl)thiazol-5-yl)phenyl)cyclohexanecarboxamide]	≤ 0.25
COc1ccc([C@H]2CC[C@H](CN(c3cccc(-c4cnc(N5CCOCC5)s4)c3)C(=O)[C@H]3CC[C@H](O)CC3)CC2)cc1C [Compound 7.15, trans-4-Hydroxy-N-((trans-4-(4-methoxy-3-methylphenyl)cyclohexyl)methyl)-N-(3-(2-morpholinothiazol-5-yl)phenyl)cyclohexanecarboxamide]	≤ 0.25
COc1ccc([C@H]2CC[C@H](CN(c3cccc(-c4cnc(OC(C)C)s4)c3)C(=O)[C@H]3CC[C@H](O)CC3)CC2)cc1C [Compound 7.17, trans-4-Hydroxy-N-(3-(2-isopropoxythiazol-5-yl)phenyl)-N-((trans-4-(4-methoxy-3-methylphenyl)cyclohexyl)methyl) cyclohexanecarboxamide]	≤ 0.25
COc1ccc([C@H]2CC[C@H](CN(c3cccc(-c4cnc(OCCO)s4)c3)C(=O)[C@H]3CC[C@H](O)CC3)CC2)cc1C [Compound 7.18, trans-4-Hydroxy-N-(3-(2-(2-hydroxyethoxy)thiazol-5-yl)phenyl)-N-((trans-4-(4-methoxy-3-methylphenyl)cyclohexyl)methyl) cyclohexanecarboxamide]	≤ 0.25
COc1ccc([C@H]2CC[C@H](CN(c3cccc(-c4cnc(CCO)s4)c3)C(=O)[C@H]3CC[C@H](O)CC3)CC2)cc1C [Compound 7.20, trans-4-Hydroxy-N-(3-(2-(2-hydroxyethyl)thiazol-5-yl)phenyl)-N-((trans-4-(4-methoxy-3-methylphenyl)cyclohexyl)methyl) cyclohexanecarboxamide]	0.25 to 1
COc1ccc([C@H]2CC[C@H](CN(c3cccc(-c4cnc(C(F)F)s4)c3)C(=O)[C@H]3CC[C@H](O)CC3)CC2)cc1C [Compound 7.22, trans-N-(3-(2-(Difluoromethyl)thiazol-5-yl)phenyl)-4-hydroxy-N-((trans-4-(4-methoxy-3-methylphenyl)cyclohexyl)methyl) cyclohexanecarboxamide]	≤ 0.25
COc1ccc([C@H]2CC[C@H](CN(c3cccc(-c4cnc(C(F)(F)F)s4)c3)C(=O)[C@H]3CC[C@H](O)CC3)CC2)cc1C [Compound 7.23, trans-4-Hydroxy-N-((trans-4-(4-methoxy-3-methylphenyl)cyclohexyl)methyl)-N-(3-(2-(trifluoromethyl)thiazol-5-yl)phenyl)cyclohexanecarboxamide]	≤ 0.25

Further lines, results first:

EC50 [µM]	Structure (SMILES)
≤ 0.25	COc1ccc([C@H]2CC[C@H](CN(c3cccc(-c4cnc(SC)s4)c3)C(=O)[C@H]3CC[C@H](O)CC3)CC2)cc1C [Compound 7.11, trans-4-Hydroxy-N-((trans-4-(4-methoxy-3-methylphenyl)cyclohexyl)methyl)-N-(3-(2-(methylthio)thiazol-5-yl)phenyl)cyclohexanecarboxamide]
≤ 0.25	COc1ccc([C@H]2CC[C@H](CN(c3cccc(-c4cnc(N(C)C)s4)c3)C(=O)[C@H]3CC[C@H](O)CC3)CC2)cc1C [Compound 7.13, trans-N-(3-(2-(Dimethylamino)thiazol-5-yl)phenyl)-4-hydroxy-N-((trans-4-(4-methoxy-3-methylphenyl)cyclohexyl)methyl) cyclohexanecarboxamide]
≤ 0.25	CCOc1ncc(-c2cccc(N(C[C@H]3CC[C@H](c4ccc(OC)c(C)c4)CC3)C(=O)[C@H]3CC[C@H](O)CC3)c2)s1 [Compound 7.16, trans-N-(3-(2-Ethoxythiazol-5-yl)phenyl)-4-hydroxy-N-((trans-4-(4-methoxy-3-methylphenyl)cyclohexyl)methyl) cyclohexanecarboxamide]
0.25 to 1	COc1ccc([C@H]2CC[C@H](CN(c3cccc(-c4cnc(CO)s4)c3)C(=O)[C@H]3CC[C@H](O)CC3)CC2)cc1C [Compound 7.19, trans-4-Hydroxy-N-(3-(2-(hydroxymethyl)thiazol-5-yl)phenyl)-N-((trans-4-(4-methoxy-3-methylphenyl)cyclohexyl)methyl) cyclohexanecarboxamide]
≤ 0.25	CC#Cc1ncc(-c2cccc(N(C[C@H]3CC[C@H](c4ccc(OC)c(C)c4)CC3)C(=O)[C@H]3CC[C@H](O)CC3)c2)s1 [Compound 7.21, trans-4-Hydroxy-N-((trans-4-(4-methoxy-3-methylphenyl)cyclohexyl)methyl)-N-(3-(2-(prop-1-yn-1-yl)thiazol-5-yl)phenyl)cyclohexanecarboxamide]
0.25 to 1	COc1ccc([C@H]2CC[C@H](CN(c3cccc(-c4cnc(C(C)=O)s4)c3)C(=O)[C@H]3CC[C@H](O)CC3)CC2)cc1C [Compound 7.24, trans-N-(3-(2-Acetylthiazol-5-yl)phenyl)-4-hydroxy-N-((trans-4-(4-methoxy-3-methylphenyl)cyclohexyl)methyl) cyclohexanecarboxamide]
0.25 to 1	COc1ccc([C@H]2CC[C@H](CN(c3cccc(-c4cnc(C(N)=O)s4)c3)C(=O)[C@H]3CC[C@H](O)CC3)CC2)cc1C [Compound 7.25, 5-(3-(trans-4-Hydroxy-N-((trans-4-(4-methoxy-3-methylphenyl)cyclohexyl)methyl)cyclohexanecarboxamido)phenyl)thiazole-2-carboxamide]
0.25 to 1	COc1ccc([C@H]2CC[C@H](CN(c3cccc(-c4cnc(C#N)s4)c3)C(=O)[C@H]3CC[C@H](O)CC3)CC2)cc1C [Compound 7.26, trans-N-(3-(2-Cyanothiazol-5-yl)phenyl)-4-hydroxy-N-((trans-4-(4-methoxy-3-methylphenyl)cyclohexyl)methyl) cyclohexanecarboxamide]
0.25 to 1	COC(=O)c1ncc(-c2cccc(N(C[C@H]3CC[C@H](c4ccc(OC)c(C)c4)CC3)C(=O)[C@H]3CC[C@H](O)CC3)c2)s1 [Compound 7.27, Methyl 5-(3-(trans-4-hydroxy-N-((trans-4-(4-methoxy-3-methylphenyl)cyclohexyl)methyl)cyclohexanecarboxamido)phenyl)thiazole-2-carboxylate]
